These results are taken from patent publication US12404284B2, “Spirocyclic inhibitors of hepatitis B virus” (Ospedale San Raffaele S.r.l., priority 2020, dated 2025).

Test [1] deals with HBV. The experiment in a line: Anti-HBV activity in vitro: extracellular HBV DNA by direct qPCR in HepAD38 cells. It counts as cell-based. The following applies: Hepatitis B virus, doxycycline-free medium, 96 hours, read-out: HBV inh EC50. An excerpt: HepAD38 cell line (Ladner et al., Antimicrob Agents Chemother, 1997, 41, 1715-20) was used for HBV inhibition assays. HepAD38 is a subclone, derived from hepatoblastoma cell line HepG2 (ATCC® Number: HB-8065™), that expresses HBV genome under the transcriptional control of a tetracycline-responsive promoter in a TET-OFF system: addition of doxycycline, an antibiotic belonging to the class of tetracycline, suppresses HBV replication, while its removal switches on the process allowing HBV viral particles release in the cell supernatant. […]
Anti-HBV activity in vitro HBV inhibition activity in vitro was performed in 96 multiwell plates. […] From the dose-response curves, half maximal effective concentration (EC50) could be calculated (see also below). […]
Plates were then incubated 96 hours at 37° C. and then subjected to cell viability assays and extracellular HBV quantification, in order to evaluate both the cytotoxic potential and the anti-viral activity of compounds. Cytotoxicity was assessed by a commercial fluorescence assay that measures the metabolic activity of cells, directly related to cell viability (Cell Titer Blue, Promega). Anti-HBV activity was evaluated by quantification of extracellular HBV DNA with direct qPCR. […]

Test [2] deals with HBV. The conditions noted are these: Phase 1b clinical studies; cited from earlier work.

`Cn1cc2c(c1C(=O)Nc1ccc(F)c(Cl)c1)OC[C@@]1(CCN(C(=O)C(=O)NCC(F)(F)F)C1)NS2(=O)=O` [Example E25, (S)—N-(3-chloro-4-fluorophenyl)-7′-methyl-1-(2-oxo-2-((2,2,2-trifluoroethyl)amino)acetyl)-2′H,4′H,7′H-spiro[pyrrolidine-3,3′-pyrrolo[3,4-b][1,4,5]oxathiazepine]-6′-carboxamide 1′,1′-dioxide]: in the test with HBV [1], the half-maximal effective concentration (EC50) (in general, the concentration at which the effect is half-maximal) is under 500 nM.
Regarding `C[C@@H](NC(=O)C(=O)N1CCC2(CC1)COc1c(c(Cl)n(C)c1C(=O)Nc1ccc(F)c(C(F)F)c1)S(=O)(=O)N2)C(F)(F)F` [Example E35, (R)-8′-chloro-N-(3-(difluoromethyl)-4-fluorophenyl)-7′-methyl-1-(2-oxo-2-((1,1,1-trifluoropropan-2-yl)amino)acetyl)-2′H,4′H,7′H-spiro[piperidine-4,3′-pyrrolo[3,4-b][1,4,5]oxathiazepine]-6′-carboxamide 1′,1′-dioxide], the half-maximal effective concentration (EC50) in the test on HBV [1] is under 500 nM.
On to `O=C(Nc1cc(F)c(F)c(F)c1)c1ccc(F)c(S(=O)(=O)N2CCC(O)CC2)c1` [NVR3-778], for which, in the test with HBV [2], the “reduction in HBV DNA” value is listed as “significant reduction” and the “reduction in serum HBV RNA” value is given as “significant reduction”.
